Data reported in patent US6737383B1, “Herbicidal oxadiazolidines” (priority 1999, dated 2004).

Legend:
[1] = test system: wild oat; test: Test B pre/postemergence wild oat; format: in vivo, Avena fatua
Summary of the method: (§1)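 Herbicidal effect was estimated by eye on a ten-point control scale after plants spent twelve to sixteen days in a greenhouse following soil or foliar treatment. Foliar sprays targeted plants at one to four leaves; all doses were formulated in a non-phytotoxic solvent with surfactant.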

[2] = test system: rape; test: Test B pre/postemergence rape; format: in vivo, Brassica napus
Summary of the method: as §1

[3] = test system: velvetleaf; test: Test B pre/postemergence velvetleaf; format: in vivo, Abutilon theophrasti
Summary of the method: as §1

[4] = test system: surinam grass; test: Test B pre/postemergence surinam grass; format: in vivo, Brachiaria decumbens
Summary of the method: as §1

[5] = test system: bamyardgrass; test: Test B flood test barnyardgrass; format: in vivo, Echinochloa crus-galli
Summary of the method: (§2)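 Each value is a visual injury score relative to controls, with 10 meaning complete control and 0 no effect. Evaluation took place twelve to sixteen days after the 2-leaf-stage plants were treated and kept in the greenhouse.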

[6] = test system: bedstraw; test: Test B pre/postemergence bedstraw; format: in vivo, Galium aparine; conditions: Postemergence
Summary of the method: as §1

[7] = test system: smallflower flatsedge; test: Test B flood test smallflower flatsedge; format: in vivo, Cyperus difformis
Summary of the method: as §2

[8] = test system: cocklebur; test: Test B pre/postemergence cocklebur; format: in vivo, Xanthium strumarium
Summary of the method: as §1

[9] = test system: pigweed; test: Test B pre/postemergence pigweed; format: in vivo, Amaranthus retroflexus
Summary of the method: as §1

[10] = test system: purple nutsedge; test: Test B pre/postemergence purple nutsedge; format: in vivo, Cyperus rotundus
Summary of the method: as §1

[11] = test system: wheat; test: Test B pre/postemergence wheat; format: in vivo, Triticum aestivum
Summary of the method: as §1

[12] = test system: corn; test: Test B pre/postemergence corn; format: in vivo, Zea mays
Summary of the method: as §1

[13] = test system: blackgrass; test: Test B pre/postemergence blackgrass; format: in vivo, Alopecurus myosuroides
Summary of the method: as §1

[14] = test system: sugar beet; test: Test B pre/postemergence sugar beet; format: in vivo, Beta vulgaris
Summary of the method: as §1

[15] = test system: soybean; test: Test B pre/postemergence soybean; format: in vivo, Glycine max
Summary of the method: as §1

[16] = test system: crabgrass; test: Test B pre/postemergence crabgrass; format: in vivo, Digitaria sanguinalis
Summary of the method: as §1

[17] = Postemergence, Rate 62 g/ha, scale 0 to 10, 0 is no effect, 10 is complete control
[18] = Postemergence, Rate 125 g/ha, scale of 0 to 10 where 0 is no effect and 10 is complete control
[19] = Postemergence, Rate 250 g/ha, scale of 0 to 10, 0 is no effect, 10 is complete control
[20] = Postemergence, Rate 500 g/ha, scale of 0 to 10 where 0 is no effect and 10 is complete control
[21] = Preemergence, Rate 62 g/ha, scale 0 to 10 (0 no effect, 10 complete control)
[22] = Preemergence, Rate 125 g/ha, scale of 0 to 10 where 0 is no effect and 10 is complete control
[23] = Preemergence, Rate 500 g/ha, scale of 0 to 10 where 0 is no effect and 10 is complete control
[24] = Rate 62 g/ha, flood test species, Pre-emergence, visual evaluation after twelve to sixteen days
[25] = Rate 125 g/ha, under heading Pre-emergence, flood test species, visual evaluation after twelve to sixteen days
[26] = Rate 250 g/ha, Pre-emergence (flood test species), scale 0 to 10, 0 is no effect, 10 is complete control
[27] = Rate 500 g/ha, Pre-emergence section of Table B, 0 to 10 scale (0 no effect, 10 complete control)

CCC(C)n1c(=O)on(C(=O)N(c2ccc(F)cc2)C(C)C)c1=O (stereo not shown) [Compound 613] was tested, and the “Plant response rating, Wild oats” value [1, 17] was 1, the “Plant response rating, Wild oats” value [1, 18] was 7 and the “Wild oats plant response rating” value [1, 19] was 9. The “Plant response rating, Wild oats” value [1, 20] was 9, the “Wild oats plant response rating” value [1, 21] was 7 and the “Wild oats plant response rating” value [1, 22] was 9. For the same compound, the “Plant response rating, Wild oats” value [1, 23] was 10, the “Plant response rating, Rape” value [2, 17] was 0 and the “Plant response rating, Rape” value [2, 18] was 0. For the same compound, the “Rape plant response rating” value [2, 19] was 3, the “Plant response rating, Rape” value [2, 20] was 7 and the “Rape plant response rating” value [2, 21] was 7. The “Rape plant response rating” value [2, 22] was 9, the “Plant response rating, Rape” value [2, 23] was 10 and the “Plant response rating, Velvetleaf” value [3, 17] was 0. For the same compound, the “Plant response rating, Velvetleaf” value [3, 18] was 4, the “Velvetleaf plant response rating” value [3, 19] was 5 and the “Plant response rating, Velvetleaf” value [3, 20] was 8. For the same compound, the “Velvetleaf plant response rating” value [3, 21] was 7, the “Velvetleaf plant response rating” value [3, 22] was 7 and the “Plant response rating, Velvetleaf” value [3, 23] was 8. The “Plant response rating, B. signalgrass” value [4, 17] was 1, the “Plant response rating, B. signalgrass” value [4, 18] was 3 and the “B. signalgrass plant response rating” value [4, 19] was 6. The “Plant response rating, B. signalgrass” value [4, 20] was 8, the “B. signalgrass plant response rating” value [4, 21] was 7 and the “B. signalgrass plant response rating” value [4, 22] was 8. The “B. signalgrass plant response rating (0 to 10 scale, 0 is no effect, 10 is complete control)” value ([4]; Preemergence, Rate 250 g/ha) was 9, the “B. signalgrass plant response rating” value [4, 23] was 9 and the “Plant response rating, Barnyardgrass (0 to 10 scale, 0 is no effect, 10 is complete control)” value [5, 24] was 0. The “Barnyardgrass plant response rating (0 to 10 scale, 0 is no effect, 10 is complete control)” value [5, 25] was 0, the “Barnyardgrass plant response rating” value [5, 26] was 0 and the “Barnyardgrass plant response rating” value [5, 27] was 0. For the same compound, the “Plant response rating, Bedstraw” value ([6]; Rate 62 g/ha, scale 0 to 10, 0 is no effect, 10 is complete control) was 8, the “Bedstraw plant response rating” value ([6]; Rate 250 g/ha, scale of 0 to 10, 0 is no effect, 10 is complete control) was 8 and the “Plant response rating, Bedstraw” value ([6]; Rate 500 g/ha, scale of 0 to 10 where 0 is no effect and 10 is complete control) was 9. The “Plant response rating, S. Flatsedge (0 to 10 scale, 0 is no effect, 10 is complete control)” value [7, 24] was 0, the “S. Flatsedge plant response rating (0 to 10 scale, 0 is no effect, 10 is complete control)” value [7, 25] was 0 and the “S. Flatsedge plant response rating” value [7, 26] was 0. For the same compound, the “S. Flatsedge plant response rating” value [7, 27] was 0, the “Plant response rating, Cocklebur” value [8, 17] was 0 and the “Plant response rating, Cocklebur” value [8, 18] was 2. For the same compound, the “Cocklebur plant response rating” value [8, 19] was 2, the “Plant response rating, Cocklebur” value [8, 20] was 2 and the “Cocklebur plant response rating” value [8, 21] was 0. For the same compound, the “Cocklebur plant response rating” value [8, 22] was 0, the “Cocklebur plant response rating (0 to 10 scale)” value ([8]; Preemergence, Rate 250 g/ha) was 2 and the “Plant response rating, Cocklebur” value [8, 23] was 8. For the same compound, the “Plant response rating, Redroot pigweed” value [9, 17] was 1, the “Plant response rating, Redroot pigweed” value [9, 18] was 2 and the “Redroot pigweed plant response rating” value [9, 19] was 7. For the same compound, the “Plant response rating, Redroot pigweed” value [9, 20] was 8, the “Redroot pigweed plant response rating” value [9, 21] was 10 and the “Redroot pigweed plant response rating” value [9, 22] was 10. For the same compound, the “Plant response rating, Redroot pigweed” value [9, 23] was 10, the “Plant response rating, Nutsedge” value [10, 17] was 0 and the “Plant response rating, Nutsedge” value [10, 18] was 2. The “Nutsedge plant response rating” value [10, 19] was 2, the “Plant response rating, Nutsedge” value [10, 20] was 4 and the “Nutsedge plant response rating” value [10, 21] was 0. For the same compound, the “Nutsedge plant response rating” value [10, 22] was 0, the “Plant response rating, Nutsedge” value [10, 23] was 2 and the “Plant response rating, Wheat” value [11, 17] was 0. For the same compound, the “Plant response rating, Wheat” value [11, 18] was 0, the “Wheat plant response rating” value [11, 19] was 2 and the “Plant response rating, Wheat” value [11, 20] was 6. For the same compound, the “Wheat plant response rating” value [11, 21] was 0, the “Wheat plant response rating” value [11, 22] was 3 and the “Plant response rating, Wheat” value [11, 23] was 6. For the same compound, the “Plant response rating, Corn” value [12, 17] was 0, the “Plant response rating, Corn” value [12, 18] was 0 and the “Corn plant response rating” value [12, 19] was 0. For the same compound, the “Plant response rating, Corn” value [12, 20] was 0, the “Corn plant response rating” value [12, 21] was 2 and the “Corn plant response rating” value [12, 22] was 3. The “Corn plant response rating (0 to 10 scale)” value ([12]; Preemergence, Rate 250 g/ha) was 9, the “Plant response rating, Corn” value [12, 23] was 9 and the “Plant response rating, Blackgrass” value [13, 17] was 8. The “Plant response rating, Blackgrass” value [13, 18] was 9, the “Blackgrass plant response rating” value [13, 19] was 9 and the “Plant response rating, Blackgrass” value [13, 20] was 9. The “Blackgrass plant response rating” value [13, 21] was 8, the “Blackgrass plant response rating” value [13, 22] was 8 and the “Blackgrass plant response rating (0 to 10 scale)” value ([13]; Preemergence, Rate 250 g/ha) was 10. The “Blackgrass plant response rating” value [13, 23] was 10, the “Plant response rating, Sugarbeets” value [14, 17] was 0 and the “Plant response rating, Sugarbeets” value [14, 18] was 0. For the same compound, the “Sugarbeets plant response rating” value [14, 19] was 0, the “Plant response rating, Sugarbeets” value [14, 20] was 0 and the “Sugarbeets plant response rating” value [14, 21] was 3. For the same compound, the “Sugarbeets plant response rating” value [14, 22] was 5, the “Plant response rating, Sugarbeets” value [14, 23] was 10 and the “Plant response rating, Soybean” value [15, 17] was 4. The “Plant response rating, Soybean” value [15, 18] was 5, the “Soybean plant response rating” value [15, 19] was 6 and the “Plant response rating, Soybean” value [15, 20] was 8. For the same compound, the “Soybean plant response rating” value [15, 21] was 0, the “Soybean plant response rating” value [15, 22] was 0 and the “Plant response rating, Soybean” value [15, 23] was 2. For the same compound, the “Plant response rating, Crabgrass” value [16, 17] was 8, the “Plant response rating, Crabgrass” value [16, 18] was 9 and the “Crabgrass plant response rating” value [16, 19] was 9. For the same compound, the “Plant response rating, Crabgrass” value [16, 20] was 9, the “Crabgrass plant response rating” value [16, 21] was 9 and the “Crabgrass plant response rating” value [16, 22] was 10. For the same compound, the “Plant response rating, Crabgrass” value [16, 23] was 10.
